Laboratory results as given in US6875575B1, “Diagnostic methods for neoplasia” (OSI Pharmaceuticals, Inc., priority 1998, dated 2005).
“Also recorded” adds a separate entry of the source. Read-outs that look alike come from different tables or passages of the source.

Assays:
[1] = test system: PDE peak B (novel cGMP-specific PDE); experiment: cGMP hydrolysis by PDE peak B from SW-480 cells; assay type: biochemical, human
neoplastic cells = experiment: Apoptosis induction in neoplastic cells; assay type: cell-based
PDE peak A (PDE5) = target: T1, PDE peak A (PDE5) (Homo sapiens, UniProt O76074); experiment: cGMP hydrolysis by PDE peak A from SW-480 cells; assay type: biochemical
T1 construct: SW-480 cells are collected and homogenized; endogenous in cells; host or cells: SW-480 cells; supernatant fractionated on DEAE-Trisacryl M, peak A

normal mucosa = experiment: Apoptosis clinical study: ALI in normal mucosa; assay type: in vivo, human; details: any of the treatment groups
Procedure: (§1) Increases in apoptosis are indicative that the neoplasia in question is sensitive to treatment with a cGMP-specific PDE inhibitor, such as sulindac sulfone (aposulind). A human in vivo aposulind-induced selective induction of apoptosis in colonic polyps is described below. Six familial polyposis patients per group were administered one of three doses of aposulind (200 mg, 400 mg which was later lowered to 200 mg for most patients in the group, or 300 mg) twice daily (BID).
Biopsies are taken from patients and used to investigate possible cellular mechanisms of apoptosis. Biopsy samples are placed in transfer media (500 ml RPMI 1640 containing 50 ml fetal calf serum, 5×10^8 units penicillin G, and 5×10^6 μg streptomycin) and kept on ice for less than 1 hour until transfer to the pathology department. Upon receipt in the pathology department, samples are removed from the transfer media and oriented mucosa up, serosa down on filter paper, placed between biopsy sponges in a tissue cassette, and fixed in 10% neutral buffered formalin for 24 hours. […]
(§2) Apoptotic and nonapoptotic cells are counted on the basis of staining and morphology. An apoptotic labeling index (ALI) is calculated by dividing the total number of apoptotic cells counted by the total number of epithelial cells counted and expressing the quotient as a percentage.

[2] = test system: colonic polyps (dysplastic tissue); experiment: Apoptosis clinical study: apoptotic labeling index (ALI) in polyps; assay type: in vivo, human
Procedure: as §1
Biopsies are taken from patients and used to investigate possible cellular mechanisms of apoptosis. Biopsy samples are placed in transfer media (500 ml RPMI 1640 containing 50 ml fetal calf serum, 5×10^8 units penicillin G, and 5×10^6 μg streptomycin) and kept on ice for less than 1 hour until transfer to the pathology department. Upon receipt in the pathology department, samples are removed from the transfer media and oriented mucosa up, serosa down on filter paper, placed between biopsy sponges in a tissue cassette, and fixed in 10% neutral buffered formalin for 24 hours. Samples are then transferred to 70% ethanol and embedded in paraffin. Samples are oriented perpendicularly to the tissue cassette during final orientation in paraffin for longitudinal crypt exposure and easy visualization of mucosa and the relation to the basement membrane.
Four micron sections of tissue were cut, mounted, deparaffinized, rehydrated in graded alcohol, and treated with pepsin (5 mg/ml) to digest protein in the tissue. Sections were washed and treated with 2% hydrogen peroxide (H2O2) in PBS to quench endogenous peroxidase and washed again. Tissue samples were then circled with a PAP pen (Research Products Int., 800-323-9814) to produce a hydrophobic barrier to concentrate reagents on the sample. […]
as §2

HT-29 cells = experiment: Apoptosis and necrosis by morphology (acridine orange/ethidium bromide); assay type: cell-based; details: HT-29 cells treated for six days
Procedure: In one type of apoptosis assay, suspected neoplastic cells are removed from a patient. The cells are then grown in culture in the presence or absence of a cGMP-specific PDE inhibitor. Apoptotic cells are measured by combining both the attached and “floating” compartments of the cultures. The protocol for treating tumor cell cultures with PDE inhibitors and related compounds to obtain a significant amount of apoptosis has been described in the literature. (See, Piazza, G. A., et al., Cancer Research, 55:3110-16, 1995, which is incorporated herein by reference). The novel features of this assay include collecting both floating and attached cells, identification of the optimal treatment times and dose range for observing apoptosis, and identification of optimal cell culture conditions. […]
Apoptotic and necrotic cell death was determined as previously described (Duke and Cohen, In: Current Protocols in Immunology, 3.17.1-3.17.16, New York, John Wiley and Sons, 1992). […]
The diagnostic method of this invention is used to determine whether a particular neoplasia is sensitive to treatment with a cGMP-specific PDE inhibitor. The apoptosis inducing activity for a series of phosphodiesterase inhibitors, specific for different PDEs, was determined. […] Apoptosis and necrosis were determined morphologically after acridine orange and ethidium bromide labeling in accordance with the assay described, supra.

SMILES | inhibition of peak B / new cGMP-PDE (in words) [1] | induction of apoptosis in neoplastic cells (in words) (neoplastic cells) | inhibition of peak A / PDE5 (in words) (PDE peak A (PDE5)) | other results
O=C(O)C1CCN(c2nc(NCc3ccc4c(c3)OCO4)c3cc(Cl)ccc3n2)CC1 [Compound E4021] | E4021-insensitive | do not have significant apoptosis-inducing or growth-inhibiting properties | – | inhibition of peak B / new cGMP-PDE (in words) ([1]; listed as E402 1): relatively insensitive to inhibition
COc1cc(/C=C2/C(C)=C(CC(=O)NCc3ccccc3)c3cc(F)ccc32)cc(OC)c1OC [Compound E, (Z)-5-fluoro-2-methyl-1-(3,4,5-trimethoxybenzylidene)-3-indenylacetamide, N-benzyl] | competitively inhibit | induce apoptosis in neoplastic cells | competitively inhibit | –
CC1=C(CC(=O)O)c2cc(F)ccc2/C1=C\c1ccc(S(C)(=O)=O)cc1 [Exisulind, (Z)-5-fluoro-2-methyl-1-[[4-(methylsulfonyl)phenyl]methylene]indene-3-yl acetic acid] | – | – | – | normal mucosa ALI versus baseline ALI during treatment (normal mucosa): no significant change; change in ALI following treatment ([2]; 200 mg BID group): did not demonstrate any elevation in ALI; change in ALI in polyps ([2]; 300 mg BID, six months of treatment): two fold increase in ALI; change in ALI of dysplastic tissue following drug treatment ([2]; 400/200 mg BID group when uniformly dosed at 400 mg BID): two-fold elevation in ALI; apoptotic and necrotic cell death (FIG. 1) (HT-29 cells): capable of causing apoptotic cell death without inducing neoplastic cell necrosis
CC1(C)C(=O)Nc2ccc(C3=NNC(=O)CC3)cc21 [Indolidan] | relatively insensitive | – | – | –
COc1ccc(C2CNC(=O)C2)cc1OC1CCCC1 (centres unmarked) [Rolipram] | relatively insensitive | – | – | –
CCCc1nn(C)c2c(=O)[nH]c(-c3cc(S(=O)(=O)N4CCN(C)CC4)ccc3OCC)nc12 [Sildenafil] | relatively insensitive to inhibition | do not have significant apoptosis-inducing or growth-inhibiting properties | inhibited activity of peak A | –
CSc1ccc(/C=C2/C(C)=C(CC(=O)O)c3cc(F)ccc32)cc1 [Sulindac sulfide, sulindac sulfide] | inhibit | induce apoptosis in neoplastic cells | inhibit | inhibition of peak B / new cGMP-PDE (in words) ([1]; listed as sulindac sulfide): competitively inhibit; inhibition of peak A / PDE5 (in words) (PDE peak A (PDE5); listed as sulindac sulfide): competitively inhibit; apoptotic and necrotic cell death (FIG. 1) (HT-29 cells): capable of causing apoptotic cell death without inducing neoplastic cell necrosis
CCOC(=O)C1=C[C@]2(CC)CCCN3CCc4c(n1c1ccccc41)[C@@H]32 [Vinpocetine] | relatively insensitive | – | – | –
CCCOc1ccccc1-c1nc2nn[nH]c2c(=O)[nH]1 [Zaprinast] | relatively insensitive to inhibition; also recorded: zaprinast-insensitive | do not have significant apoptosis-inducing or growth-inhibiting properties | competitive inhibition | –
